According to paper PMC12431657, “Discovery and mechanistic insights of dibenzoylmethane as a broad spectrum inhibitor of coronavirus” (PLOS Pathogens, 2025):
pEC50: −log10 of the molar value. Values joined by “and” are separate entries in the source; they are usually repeats but may differ in a detail not shown here. Equal values may be shown once. Read-outs that look alike come from different tables or passages of the source.

How the values were obtained:
caspase-6 [1] = biological target: T1, caspase-6 (Homo sapiens, UniProt P55212); assay type: cell-based
T1 construct: endogenous in cells
T1 sequence (P55212 24-293): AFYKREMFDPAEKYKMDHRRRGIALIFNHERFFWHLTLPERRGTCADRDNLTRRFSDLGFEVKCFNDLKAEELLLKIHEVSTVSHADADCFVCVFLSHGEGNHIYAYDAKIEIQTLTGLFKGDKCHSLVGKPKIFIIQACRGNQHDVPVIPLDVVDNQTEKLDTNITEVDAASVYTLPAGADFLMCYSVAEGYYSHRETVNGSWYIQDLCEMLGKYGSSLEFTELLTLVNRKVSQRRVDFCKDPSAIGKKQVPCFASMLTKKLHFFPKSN

HCoV-OC43 [2] = assay: microbe, parasite or virus in culture; assay type: cell-based
[3] = Metabolic stability in mouse liver microsomes; assay type: in vitro ADME; conditions: average, read-out: T1/2 of metabolism
Procedure: Thus, a pharmacokinetic study was performed for DBM in Sprague-Dawley (SD) rats. Following oral administration of menstruum or DBM at 200 mpk, blood samples from the rats were collected at 2 min, 5 min, 15 min, 30 min, 1 h, 2 h, 4 h, 8 h, and 24 h posttreatment. The concentration of DBM in the plasma was determined by liquid chromatography with tandem mass spectrometry (LC-MS/MS). The minimum effective concentration (MEC) line in the graph represents the EC95 value of DBM (Fig 3C). […] To analyse the metabolic stability of DBM, we incubated human and mouse liver microsomes with DBM. The T1/2 of metabolism was an average of 13.92 min in human liver microsomes and 4.84 min in mouse liver microsomes.

HCoV-OC43 [4] = assay: Antiviral activity in vitro, qRT-PCR, HCoV-OC43 in Huh-7 cells; assay type: cell-based; conditions: for HCoV-OC43, Huh-7: inhibition at the concentration (Fig2B): replicates
HCoV-OC43 [5] = conditions: DBM 400 mpk QD
caspase-6 [6] = assay type: cell-based
HCoV-OC43 [7] = assay: Viral release (intracellular versus supernatant viral RNA); assay type: cell-based
Procedure: To obtain further insight into the stage at which DBM inhibits the replication of HCoV-OC43 and other HCoVs, RD cells were incubated with compounds, including DBM, remdesivir (RDV), and chloroquine (CQ), at different stages of viral infection. Viral RNA from the supernatant was extracted and quantitatively analysed via qRT-PCR. […] For the viral binding assay, cells were cultured in the presence or absence of DBM at different concentrations for 1 hour before being infected with HCoV-OC43 at an MOI of 50, and then were placed on ice for 2 hours for the viral particles to bind to the membrane of the host cells, followed by washing with PBS. […] To determine whether DBM influences viral release, we quantified viral RNA both intracellularly and in the supernatant.
A) Efficacy of DBM, remdesivir (RDV), and chloroquine (CQ) in inhibiting virus replication at different stages of administration. […] C) Fluorescence images of cell-cell fusion induced by the transient expression of HCoV-OC43 spike proteins and eGFP (green) in RD cells. […] D) Confocal fluorescence microscopy images showing HCoV-OC43 internalization. E) Quantification of intracellular viral particles per cell, based on images obtained from confocal fluorescence microscopy. […] Data were statistically analysed with Student’s T test. *: p ≤ 0.05, **: p ≤ 0.01, ***: p ≤ 0.001, ****: p ≤ 0.0001; ns, not significant. […]

mammary tumorigenesis = system: mammary tumorigenesis; parameters: method as in PMID 11403916; conditions: dietary DBM, mice; cited from earlier work
HCoV-OC43 [8] = assay: Antiviral activity in vitro, qRT-PCR, HCoV-OC43 in RD cells; assay type: cell-based; conditions: for EC50 (OC43, RD): inhibition at the concentration: replicates
Huh-7 cells = assay type: cell-based
enterovirus EV71 = assay type: cell-based

In the case of `O=C(CC(=O)c1ccccc1)c1ccccc1` [DBM, dibenzoylmethane], the “activity of caspase-6 in treated cells” value (caspase-6 [1]) was “decrease in the activity of caspase-6”, the “Caspase-6 activity (Fig5J)” value (caspase-6 [1]; time point 0, replicates) was 8.2 and 8.1 and 9.0 and the “Caspase-6 activity (Fig5J)” value (caspase-6 [1]; time point 2, replicates) was 11.9 and 12.2 and 11.5. The “Caspase-6 activity (Fig5J)” value (caspase-6 [1]; time point 4, replicates) was 16.7 and 15.6 and 16.4, the “Caspase-6 activity (Fig5J)” value (caspase-6 [1]; time point 6, replicates) was 12.2 and 13.5 and 13.6 and the “Caspase-6 activity (Fig5J)” value (caspase-6 [1]; time point 8, replicates) was 13.0 and 12.4 and 9.9. For the same molecule, the “resistance of the virus after consecutive passages” value (HCoV-OC43 [2]; 17 consecutive passages in the presence of DBM) was “did not develop significant resistance”, the pEC50 (HCoV-OC43 [2]; Betacoronavirus 1, OC43, read-out: EC50 of DBM against HCoV-OC43 passaged with DBM) was 6.07 and the pEC50 (HCoV-OC43 [2]; Betacoronavirus 1, OC43, read-out: EC50 of DBM against HCoV-OC43 passaged with DMSO) was 6.24. For the same molecule, the viral inhibition (HCoV-OC43 [2]; DBM (virus passaged with DBM), concentration 1.7) was 93.4 and 85.2, the viral inhibition (HCoV-OC43 [2]; DBM (virus passaged with DBM), concentration 5.0) was 99.5 and the viral inhibition (HCoV-OC43 [2]; column head DMSO (virus passaged with DMSO), concentration 5.0) was 100.0. The half-life [3] was 4.84 min, the pEC50 (HCoV-OC43 [4]; Betacoronavirus 1, OC43, Huh-7, 24 h, read-out: EC50 HCoV-OC43 (Huh-7)) was 7.05 and the “HCoV-OC43, Huh-7: inhibition at the concentration (Fig2B)” value (shortened to “HCoV-OC43, Huh-7: inhibition”) (HCoV-OC43 [4]; conc. 0.1 (unit not given)) was 51.3 and 53.7 and 47.2. For the same molecule, the “HCoV-OC43, Huh-7: inhibition” value (HCoV-OC43 [4]; conc. 0.2 (unit not given)) was 64.6 and 65.3 and 60.0, the “HCoV-OC43, Huh-7: inhibition” value (HCoV-OC43 [4]; conc. 0.7 (unit not given)) was 95.4 and 95.1 and 94.4 and the “HCoV-OC43, Huh-7: inhibition” value (HCoV-OC43 [4]; conc. 2.2 (unit not given)) was 98.2 (2×) and 98.0. For the same molecule, the “HCoV-OC43, Huh-7: inhibition” value (HCoV-OC43 [4]; conc. 6.7 (unit not given)) was 98.4, the “HCoV-OC43, Huh-7: inhibition” value (HCoV-OC43 [4]; conc. 20.0 (unit not given)) was 98.3 (2×) and 98.5 and the “body weight loss during the experiment” value (HCoV-OC43 [5]; VV116 25 mpk QD) was “did not show any body weight loss”. For the same molecule, the “viral copy numbers in the brain, lungs, and kidneys compared with the vehicle group” value (HCoV-OC43 [5]; 5 days post infection) was “significantly fewer viral copy numbers”, the “viral load in the brains lower than in the vehicle group” value (HCoV-OC43 [5]; Day 5) was “approximately 6 logs” and the “Caspase-6/CASP6 level relative to DMSO (Fig5I)” value (caspase-6 [6]) was 75.9 and 67.7 and 60.2 and 63.8. The “relative level of CASP6 mRNA” value (caspase-6 [6]) was “decreased”, the “proportion of viral RNAs released into the supernatant versus controls” value (HCoV-OC43 [7]) was “No significant difference” and the “Proportion of release of HCoV-OC43 RNA” value (HCoV-OC43 [7]; DBM-treated samples, replicates) was 0.9 and 1.5 and 5.8. The “reduction of tumor incidence” value (mammary tumorigenesis) was 97%, the pEC50 (HCoV-OC43 [8]; Betacoronavirus 1, OC43, RD, 24 h, read-out: EC50 HCoV-OC43 (RD)) was 6.46 and the “Viral RNA copies (Fig6B)” value (HCoV-OC43 [8]; OC43, concentration 4) was 7.43E+03 and 9.55E+03 and 9.54E+03. The “Viral RNA copies (Fig6B)” value (HCoV-OC43 [8]; OC43, concentration 20) was 3.88E+03 and 6.38E+03 and 7.34E+03, the “EC50 (OC43, RD): inhibition at the concentration” value (from here on “EC50 (OC43, RD): inhibition”) (HCoV-OC43 [8]; conc. 0.1 (unit not given)) was -75.5 and -76.6 and -100.8 and the “EC50 (OC43, RD): inhibition” value (HCoV-OC43 [8]; conc. 0.2 (unit not given)) was 23.1 and 21.4 and 22.1. For the same molecule, the “EC50 (OC43, RD): inhibition” value (HCoV-OC43 [8]; conc. 0.7 (unit not given)) was 88.5 and 91.5 and 92, the “EC50 (OC43, RD): inhibition” value (HCoV-OC43 [8]; conc. 2.2 (unit not given)) was 99.6 and the “EC50 (OC43, RD): inhibition” value (HCoV-OC43 [8]; conc. 6.7 (unit not given)) was 99.9. The “EC50 (OC43, RD): inhibition” value (HCoV-OC43 [8]; conc. 20 (unit not given)) was 99.8, the treated/untreated (Huh-7 cells) was 1.279 and 1.276 and 1.31 and 1.204 and 1.484 and the “antiviral activity against EV71” value (enterovirus EV71) was “no antiviral activity”.
